The source of these data is patent US20120034288A1, “COMPOSITIONS AND METHODS FOR ENHANCED ATTRACTION OF NOCTUID MOTHS” (priority 2010, published 2012).

Test [1] concerns Heliothis zea. As to the kind of experiment: Heliothis zea Test 2: field trap capture with added enhancer. Particulars: Arkansas, enhancer added to pheromone lure. The format is in vivo. The source says: The percent increase in Heliothis zea captures with the addition of the soybean volatile trans-2,cis-6-nonadienal was 44%, 25%, and 54% respectively for Mississippi and Arkansas in test 1 and in Arkansas in test 2.

The test system of test [2] is Heliothis zea. The experiment in a line: Heliothis zea Test 1: field trap capture, Hercon pheromone lure with/without enhancer. Type of test: in vivo. Particulars: for percent increase in Heliothis zea captures: test 1, enhancer added to pheromone lure. As to the method:
12 traps were set in Yazoo City and 10 in Monroe County, Miss. From mid June through mid September trans-2, cis-6-nonadienal, a compound reported from the volatiles of corn and soybean plants was tested. Both treatments used a commercial Heliothis zea pheromone dispenser produced by Hercon. The standard was this lure only, while the enhanced traps also contained a dispenser produced in-house that contained the enhancer.

Take `CC/C=C\CC/C=C/C=O` [trans-2,cis-6-nonadienal, trans-2, cis-6-nonadienal]: the figures for the “percent increase in Heliothis zea captures” value in the test on Heliothis zea [1], with Heliothis zea [2] (Arkansas) and with Heliothis zea [2] (Mississippi) were 54%, 25% and 44%, respectively. Moreover, in the test on Heliothis zea [2] (statement in words), the “function as an enhancer for attracting H. zea” value is “functioned as an enhancer”.
